According to publication PMC12116762, “Topobexin targets the Topoisomerase II ATPase domain for beta isoform-selective inhibition and anthracycline cardioprotection” (Nature Communications, 2025):
“And” between values parts separate entries of the source, which are not always exact repeats. Equal entries are not always repeated.

Assays:
recombinant human TOP2B = target: T1, recombinant human TOP2B (Homo sapiens, UniProt Q02880); assay: In vitro ATPase activity of TOP2B (coupled assay); type: biochemical
T1 construct: Using recombinant full-length human TOP2A and TOP2B enzymes; YFP (N, cleaved yes); made in house; host or cells: HEK293F
Method: (§1) Topoisomerase proteins were diluted to 500 nM in storage buffer containing 20 mM HEPES pH 7.5, 500 mM NaCl, 0.5 mM TCEP, 25% glycerol, and 0.2 mg/mL BSA prior to use. A coupled assay was used to measure TOP2-catalyzed ATP hydrolysis in vitro[37] in Costar 96-well plates (Corning Incorporated). […] Reaction plates were pre-warmed to 30 °C for 5 min and ATP was added last to initiate the reaction. The reaction plate was placed in a CLARIOstarPlus plate reader (BMG Labtech) to measure NADH fluorescence at 30 °C every 30 s over 120 cycles using a 340-60 excitation filter and a 480-100 emission filter. Background fluorescence signals calculated from wells containing no ATP were subtracted from each measurement. The slope of NADH fluorescence decay in each well was calculated using the MARS software (BMG Labtech) and reaction wells that lacked topoisomerase inhibitor to account for photobleaching of NADH fluorescence served as background subtraction. Each presented data point was obtained from distinct sample. Values were normalized to untreated controls and plotted as a function of inhibitor concentration to determine IC50 values using Prism 9 (GraphPad).

[1] = tested on: neonatal rat ventricular cardiomyocytes (NVCM); assay: Protection against DAU-induced cytotoxicity (LDH release) in NVCM; type: cell-based; design: key to Suppl.Fig.3 DAU-induced cytotoxicity (LDH release) in NVCM, mean of independent replicates / LDH release (DAU-induced cytotoxicity), mean of independent replicates: % of total LDH activity
Method: (§2) The protective effects of the BNS-22 and newly prepared compounds were evaluated using primary cultures of neonatal rat cardiomyocytes isolated in house as previously described. Hearts isolated from 1- to 3-day-old Wistar rats were minced in buffer (1.2 mM MgSO4 · 7H2O, 116 mM NaCl, 5.3 mM KCl, 1.13 mM NaH2PO4 · H2O, 20 mM 4-(2-hydroxyethyl)-1-piperazine ethanesulfonic acid (HEPES), glucose 1 mg/mL) on ice, then serially digested (20 min, six repetitions) at 37 °C with collagenase type II (60 U/mL, Gibco). After 2 h pre-plating in a 150 mm Petri dish per approximately 20 hearts to minimize non-myocyte contamination, cells were plated in 24-well gelatin-coated plates at a density of 400,000 cells per well. Cells were cultured at 37 °C and 5% CO2 in Dulbecco’s modified Eagle medium (DMEM)/ F12 culture medium supplemented with 10% horse serum, 5% fetal bovine serum (FBS), 20 mM sodium pyruvate, 50 U/mL penicillin, and 50 μg/mL streptomycin. Freshly isolated cells were left for 40 h to attach and form a culture of spontaneously beating cardiomyocytes, then the medium was changed to DMEM/F12 medium supplemented with 5% fetal bovine serum, 20 mM sodium pyruvate, 50 U/mL penicillin, and 50 μg/mL streptomycin. For the experiments, the medium was changed to serum- and pyruvate-free DMEM/F12 with 50 U/mL penicillin and 50 μg/mL streptomycin. Cardiomyocytes were pretreated with BNS-22 or new compounds for 3 h and then coincubated with DAU (1.2 µM) for another 3 h. After the DAU treatment period, the culture medium was exchanged for the drug-free DMEM/F12 with 50 U/mL penicillin and 50 μg/mL streptomycin for the 48 h follow-up. Experiments to determine the inherent toxicity of each compound studied follow the same schedule, only no DAU was added. Subsequently, the culture medium sample was taken from each well for evaluation of lactate dehydrogenase (LDH) activity. The total LDH activity of each sample for normalization was measured after 1 h of incubation at 37 °C in lysis buffer (0.1 M potassium phosphate, 1% Triton X-100, 1 mM dithiothreitol (DTT), 2 mM EDTA, pH 7.8, 15 min in RT). All samples were immediately analyzed in Tris HCl buffer (pH 8.9) containing 35 mM lactic acid and 5 mM NAD^+. The rate of NAD^+ reduction was monitored spectrophotometrically at 340 nm for 2 min. The slope of the linear region was calculated, and the results were expressed as a percentage of the total LDH. Each presented data point was obtained from distinct sample.

[2] = tested on: neonatal rat ventricular cardiomyocytes (NVCM); assay: Inherent toxicity (LDH release) in NVCM; type: cell-based; design: key to LDH release (inherent toxicity), mean of independent replicates: % of total LDH activity; settings: NVCM, Suppl.Fig.4
Method: as §2

YFP-TOP2B = target: T2, YFP-TOP2B (Homo sapiens, UniProt Q02880); assay: FRAP analysis, YFP-TOP2B in HEK293F cells; type: cell-based; settings: 15 min pre-incubation
T2 construct: Using recombinant full-length human TOP2A and TOP2B enzymes; expressed in transfected cells; host or cells: HEK293F
Method: (§3) HEK293F cells were transfected with DNA plasmids encoding yellow-fluorescent protein (YFP)-TOP2A or YFP-TOP2B (the same DNA constructs for mammalian protein expression and purification) using Lipofectamine 2000 (Thermo Fisher Scientific). Cells were cultured for 24 h post transfection and YFP signals were confirmed prior to FRAP experiments. Transfected cells were plated on glass-bottomed culture dishes (Matsunami) and rested overnight. The next day, each dish was pre-incubated with the indicated inhibitor treatment or DMSO control for 15 min prior to FRAP experiment. Each set of experiments was repeated on at least two different days using newly transfected cells each time. Live-cell imaging was done using a LSM 980 microscope (Carl Zeiss Microscopy, LLC). YFP signal was excited at 508 nm at 2% laser power and detected through a 516–604 nm range. A small area within the nucleus (purple box) is manually selected for fluorescence bleaching at 100% laser power for 50 iterations. Inhibition of TOP2 by obex inhibitors was detected by impairment in fluorescence recovery at 15 s post bleaching, as a lack of inhibition allows for TOP2 diffusion throughout the nucleus.

recombinant human TOP2A = target: T3, recombinant human TOP2A (Homo sapiens, UniProt P11388); assay: In vitro ATPase activity of TOP2A (coupled assay); type: biochemical; settings: n=3
T3 construct: Using recombinant full-length human TOP2A and TOP2B enzymes; YFP (N, cleaved yes); made in house; host or cells: HEK293F
Method: as §1

YFP-TOP2A = target: T4, YFP-TOP2A (Homo sapiens, UniProt P11388); assay: FRAP analysis, YFP-TOP2A in HEK293F cells; type: cell-based; settings: 15 min pre-incubation
T4 construct: Using recombinant full-length human TOP2A and TOP2B enzymes; expressed in transfected cells; host or cells: HEK293F
Method: as §3

[3] = target: T5, TOP2B-DNA covalent complex (Homo sapiens, UniProt Q02880); assay: RADAR assay, etoposide-induced TOP2B-DNA covalent complex in HEK293F cells; type: cell-based; settings: etoposide 5 μM alone; independent replicates
T5 construct: endogenous in cells; host or cells: HEK293F
Method: (§4) HEK293F cells were plated at 3 × 10^5 cells per well and grown overnight. […] Upon removal of media, cells in each well were immediately lysed with 750 µL DNAzol (Molecular Research Center, Inc.) and the DNA was precipitated by addition of 375 µL of 100% ethanol. This step was then repeated to eliminate protein aggregates. Precipitate from each sample was pelleted via centrifugation at 4 °C and max speed for 5 min. The pellets were washed twice with buffer containing 20 mM Tris pH 7.5, 1 mM EDTA pH 8.0, 50 mM NaCl, 50% EtOH, and at the end of each wash, centrifugation at 4000 × g for 2 min was repeated to isolate the DNA pellets. The pellets were washed in 75% EtOH and then collected by centrifugation at 4 °C and max speed for 5 min. The supernatant was removed via pipetting, and the remaining pellets were air dried for 5 min before 50 µL 8 mM NaOH and 0.1% Tween-20 was added to each pellet. Once no visible precipitate remained, each mixture was supplemented with 5 µL of Benzonase buffer containing 500 mM Tris pH 8.0, 10 mM MgCl2, 1/1000 Roche complete protease inhibitor cocktail (Millipore Sigma) and 40 units Benzonase (Millipore Sigma) followed by 30 to 60 min incubation at 37 °C until the pellets were fully dissolved. The DNA content from each sample was quantified on a nanodrop, and 10 µg of DNA was diluted to a final volume of 200 µL in 8 mM NaOH and 0.1% Tween. The samples were applied over the Whatman Minifold I dot blot apparatus (Cytiva) and collected on a PVDF membrane (Thermo Fisher Scientific). The membrane was washed three times with 8 mM NaOH and 0.1% Tween-20 solution prior to removal and blocking with the same wash solution containing 1 mg/mL BSA. Western blotting was carried out on an iBind (Thermo Fisher Scientific) and TOP2 proteins were detected using isoform-specific antibody against full length TOP2A (1:250 dilution; HT2A21, Inspiralis) and TOP2B (1:500 dilution; 611493, BD Biosciences) and visualized with anti-rabbit (1:1000 dilution; 926-68071, LI-COR Bio) and anti-mouse (1:1000 dilution; 926-32210, LI-COR Bio) secondary antibodies in iBind running buffer. The blots were imaged on a LI-COR Odyssey Fc and analysed using ImageStudio. Each presented data point was obtained from distinct sample.

[4] = target: T6, TOP2A-DNA covalent complex (Homo sapiens, UniProt P11388); assay: RADAR assay, etoposide-induced TOP2A-DNA covalent complex in HEK293F cells; type: cell-based; settings: etoposide 5 μM alone; independent replicates
T6 construct: endogenous in cells; host or cells: HEK293F
Method: as §4

T1 sequence (Q02880 1-1621 isoform Q02880-2): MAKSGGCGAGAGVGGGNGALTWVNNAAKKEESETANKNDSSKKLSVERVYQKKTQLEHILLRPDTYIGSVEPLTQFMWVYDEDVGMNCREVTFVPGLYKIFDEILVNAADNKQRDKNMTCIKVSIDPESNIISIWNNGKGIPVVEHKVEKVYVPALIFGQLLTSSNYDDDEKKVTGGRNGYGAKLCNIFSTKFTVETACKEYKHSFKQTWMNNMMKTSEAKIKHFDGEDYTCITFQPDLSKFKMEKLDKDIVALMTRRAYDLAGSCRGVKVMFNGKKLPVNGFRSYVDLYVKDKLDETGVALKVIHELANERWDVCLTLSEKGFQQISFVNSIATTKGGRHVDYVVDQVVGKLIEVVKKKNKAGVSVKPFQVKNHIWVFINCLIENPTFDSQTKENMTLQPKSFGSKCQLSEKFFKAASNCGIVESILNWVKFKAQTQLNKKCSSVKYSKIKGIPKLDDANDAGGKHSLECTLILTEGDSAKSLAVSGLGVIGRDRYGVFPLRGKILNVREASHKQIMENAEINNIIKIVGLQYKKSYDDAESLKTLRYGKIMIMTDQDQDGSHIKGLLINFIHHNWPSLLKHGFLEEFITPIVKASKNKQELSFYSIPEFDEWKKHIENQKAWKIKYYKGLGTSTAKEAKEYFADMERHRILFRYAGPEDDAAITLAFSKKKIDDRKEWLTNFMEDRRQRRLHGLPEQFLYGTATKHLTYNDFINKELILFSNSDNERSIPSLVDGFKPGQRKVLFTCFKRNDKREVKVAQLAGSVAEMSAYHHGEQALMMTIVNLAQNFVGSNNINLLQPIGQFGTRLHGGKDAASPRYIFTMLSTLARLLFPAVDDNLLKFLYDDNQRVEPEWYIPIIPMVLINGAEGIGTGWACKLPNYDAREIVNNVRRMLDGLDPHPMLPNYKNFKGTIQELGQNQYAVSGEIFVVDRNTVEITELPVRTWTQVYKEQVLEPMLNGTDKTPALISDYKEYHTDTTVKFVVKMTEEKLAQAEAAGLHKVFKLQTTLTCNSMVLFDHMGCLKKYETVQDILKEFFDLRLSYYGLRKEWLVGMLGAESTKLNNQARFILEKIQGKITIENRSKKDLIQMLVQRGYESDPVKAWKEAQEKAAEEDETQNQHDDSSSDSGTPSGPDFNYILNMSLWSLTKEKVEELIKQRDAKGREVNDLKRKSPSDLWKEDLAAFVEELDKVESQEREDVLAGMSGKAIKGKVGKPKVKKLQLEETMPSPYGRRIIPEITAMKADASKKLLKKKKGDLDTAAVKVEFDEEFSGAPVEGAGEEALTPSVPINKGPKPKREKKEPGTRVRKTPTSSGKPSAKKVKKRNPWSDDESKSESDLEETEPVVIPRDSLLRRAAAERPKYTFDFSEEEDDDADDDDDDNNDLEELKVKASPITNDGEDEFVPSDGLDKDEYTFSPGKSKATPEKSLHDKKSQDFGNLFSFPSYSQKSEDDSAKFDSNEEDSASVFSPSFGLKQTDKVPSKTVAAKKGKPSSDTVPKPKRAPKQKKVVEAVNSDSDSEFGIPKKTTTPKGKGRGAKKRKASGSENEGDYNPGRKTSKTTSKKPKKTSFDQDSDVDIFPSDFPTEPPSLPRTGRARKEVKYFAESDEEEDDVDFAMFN
T6 sequence (P11388 whole entry, one chain of several): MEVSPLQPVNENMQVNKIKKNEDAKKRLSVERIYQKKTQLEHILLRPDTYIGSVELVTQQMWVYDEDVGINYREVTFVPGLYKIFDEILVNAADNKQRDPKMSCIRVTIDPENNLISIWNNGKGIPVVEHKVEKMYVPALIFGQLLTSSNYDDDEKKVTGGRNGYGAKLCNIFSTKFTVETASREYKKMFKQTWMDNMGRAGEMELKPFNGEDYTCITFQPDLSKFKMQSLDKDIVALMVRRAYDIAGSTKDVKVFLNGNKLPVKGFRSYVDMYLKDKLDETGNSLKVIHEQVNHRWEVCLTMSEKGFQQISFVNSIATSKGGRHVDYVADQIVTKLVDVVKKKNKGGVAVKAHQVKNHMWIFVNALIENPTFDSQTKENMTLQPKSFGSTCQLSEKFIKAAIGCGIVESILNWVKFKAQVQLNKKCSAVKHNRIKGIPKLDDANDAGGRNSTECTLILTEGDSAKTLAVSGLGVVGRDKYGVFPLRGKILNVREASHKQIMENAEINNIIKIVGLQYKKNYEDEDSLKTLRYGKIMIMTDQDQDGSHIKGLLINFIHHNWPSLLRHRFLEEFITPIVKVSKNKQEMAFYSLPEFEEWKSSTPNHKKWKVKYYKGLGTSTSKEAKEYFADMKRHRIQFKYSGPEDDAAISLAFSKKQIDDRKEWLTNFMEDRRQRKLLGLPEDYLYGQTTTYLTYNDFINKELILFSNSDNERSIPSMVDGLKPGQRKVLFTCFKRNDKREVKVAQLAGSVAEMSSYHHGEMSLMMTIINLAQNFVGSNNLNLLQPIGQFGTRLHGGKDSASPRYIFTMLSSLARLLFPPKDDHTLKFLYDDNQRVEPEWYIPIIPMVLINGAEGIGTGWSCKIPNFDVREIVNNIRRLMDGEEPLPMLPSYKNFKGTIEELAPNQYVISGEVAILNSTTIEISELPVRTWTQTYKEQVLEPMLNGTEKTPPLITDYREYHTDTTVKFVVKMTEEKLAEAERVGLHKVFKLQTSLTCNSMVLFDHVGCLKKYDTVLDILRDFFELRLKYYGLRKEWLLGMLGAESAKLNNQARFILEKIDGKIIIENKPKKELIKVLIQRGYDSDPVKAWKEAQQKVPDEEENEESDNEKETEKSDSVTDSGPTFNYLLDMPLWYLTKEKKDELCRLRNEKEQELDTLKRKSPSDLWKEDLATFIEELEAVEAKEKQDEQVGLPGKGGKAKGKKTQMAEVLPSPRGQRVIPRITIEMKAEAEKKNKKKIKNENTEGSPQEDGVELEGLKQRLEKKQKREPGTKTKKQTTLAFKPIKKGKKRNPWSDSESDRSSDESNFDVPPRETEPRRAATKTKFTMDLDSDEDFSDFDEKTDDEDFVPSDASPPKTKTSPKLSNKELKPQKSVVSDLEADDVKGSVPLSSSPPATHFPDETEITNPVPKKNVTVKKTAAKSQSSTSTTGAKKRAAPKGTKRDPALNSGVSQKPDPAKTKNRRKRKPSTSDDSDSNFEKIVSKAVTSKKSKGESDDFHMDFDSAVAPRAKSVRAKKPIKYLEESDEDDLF
T5 sequence (Q02880 2-1626 limits assumed, one chain of several): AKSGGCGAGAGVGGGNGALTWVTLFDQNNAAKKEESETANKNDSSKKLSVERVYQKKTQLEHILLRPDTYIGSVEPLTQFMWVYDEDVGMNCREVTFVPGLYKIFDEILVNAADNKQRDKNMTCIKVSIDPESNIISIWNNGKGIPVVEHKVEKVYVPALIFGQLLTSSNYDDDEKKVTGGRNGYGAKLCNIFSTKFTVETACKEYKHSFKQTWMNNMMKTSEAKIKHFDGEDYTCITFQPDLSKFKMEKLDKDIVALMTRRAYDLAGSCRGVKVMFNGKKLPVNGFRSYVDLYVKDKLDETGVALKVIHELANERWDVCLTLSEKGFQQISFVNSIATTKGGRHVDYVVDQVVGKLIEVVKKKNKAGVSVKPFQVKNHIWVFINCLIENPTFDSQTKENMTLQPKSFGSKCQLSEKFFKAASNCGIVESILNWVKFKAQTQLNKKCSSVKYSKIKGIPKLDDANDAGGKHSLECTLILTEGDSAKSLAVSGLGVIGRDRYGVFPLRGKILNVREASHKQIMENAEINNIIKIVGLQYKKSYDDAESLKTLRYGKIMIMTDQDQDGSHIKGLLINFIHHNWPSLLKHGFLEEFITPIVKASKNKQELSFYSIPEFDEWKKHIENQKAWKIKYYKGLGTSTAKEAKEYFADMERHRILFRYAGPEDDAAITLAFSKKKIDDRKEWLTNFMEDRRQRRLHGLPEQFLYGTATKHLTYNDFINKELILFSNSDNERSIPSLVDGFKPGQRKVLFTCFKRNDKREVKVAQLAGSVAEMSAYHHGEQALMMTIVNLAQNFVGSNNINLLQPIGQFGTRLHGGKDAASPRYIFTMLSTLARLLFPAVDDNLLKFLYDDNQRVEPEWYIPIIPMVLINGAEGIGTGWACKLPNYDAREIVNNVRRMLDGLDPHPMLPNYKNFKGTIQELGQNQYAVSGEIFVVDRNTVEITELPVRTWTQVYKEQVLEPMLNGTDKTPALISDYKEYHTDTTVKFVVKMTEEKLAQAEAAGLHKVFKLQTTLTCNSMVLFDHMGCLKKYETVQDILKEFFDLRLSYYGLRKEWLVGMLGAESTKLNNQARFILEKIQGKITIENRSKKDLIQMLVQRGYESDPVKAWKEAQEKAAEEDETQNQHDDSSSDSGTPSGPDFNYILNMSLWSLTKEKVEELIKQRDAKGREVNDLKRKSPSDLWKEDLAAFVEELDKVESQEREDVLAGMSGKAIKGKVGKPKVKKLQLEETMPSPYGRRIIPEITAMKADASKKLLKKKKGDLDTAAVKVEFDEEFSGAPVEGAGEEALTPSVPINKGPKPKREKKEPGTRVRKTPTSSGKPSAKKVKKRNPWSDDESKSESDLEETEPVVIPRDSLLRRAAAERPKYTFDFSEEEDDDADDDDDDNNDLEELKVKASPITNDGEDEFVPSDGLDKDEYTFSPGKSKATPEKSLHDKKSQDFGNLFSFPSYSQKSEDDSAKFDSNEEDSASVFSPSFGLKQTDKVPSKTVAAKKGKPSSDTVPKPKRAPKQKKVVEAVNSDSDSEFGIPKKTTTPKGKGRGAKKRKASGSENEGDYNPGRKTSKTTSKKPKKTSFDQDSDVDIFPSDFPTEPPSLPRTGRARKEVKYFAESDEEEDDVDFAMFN
T2 sequence (Q02880 1-1621 isoform Q02880-2): as the sequence (Q02880 1-1621 isoform Q02880-2) above
T4 sequence (P11388 whole entry): as the sequence (P11388 whole entry, one chain of several) above
T3 sequence (P11388 whole entry): as the sequence (P11388 whole entry, one chain of several) above

SRbeta (SRTOP2B), TOP2 ATPase activity (recombinant human TOP2B; TOP2A IC50 divided by TOP2B IC50) | IC50 (recombinant human TOP2B; n=3) | fluorescence recovery of YFP-TOP2B (FRAP) (YFP-TOP2B) | IC50 (recombinant human TOP2A) | fluorescence recovery of YFP-TOP2A (FRAP) (YFP-TOP2A) | TOP2B spot intensity [3] | Compound | relative inhibition of TOP2A vs TOP2B (recombinant human TOP2B; ATPase) | minimal effective concentration ([1]; Rattus norvegicus, Cardiomyocyte, NVCM, protection against DAU 1.2 µM, n=4, read-out: LEC = lowest effective concentration) | Suppl.Fig.3 DAU-induced cytotoxicity (LDH release) in NVCM, mean of independent replicates ([1]; compound 1 µM + DAU 1.2 µM) | Suppl.Fig.3 DAU-induced cytotoxicity (LDH release) in NVCM, mean of independent replicates ([1]; compound 10 µM + DAU 1.2 µM) | Suppl.Fig.3 DAU-induced cytotoxicity (LDH release) in NVCM, mean of independent replicates ([1]; compound 30 µM + DAU 1.2 µM) | Suppl.Fig.3 DAU-induced cytotoxicity (LDH release) in NVCM, mean of independent replicates ([1]; compound 100 µM + DAU 1.2 µM) | LDH release (inherent toxicity), mean of independent replicates ([2]; compound alone 1 µM) | LDH release (inherent toxicity), mean of independent replicates ([2]; compound alone 10 µM) | LDH release (inherent toxicity), mean of independent replicates ([2]; compound alone 30 µM) | LDH release (inherent toxicity), mean of independent replicates ([2]; compound alone 100 µM) | TOP2A spot intensity [4]
1.0 | 0.66 µM | inhibits fluorescence recovery | 0.69 µM | inhibits fluorescence recovery | – | CCCc1cc(=O)oc2c(C(=O)N3CCCc4ccccc43)c(O)ccc12 [2c] | inhibited TOP2A and TOP2B with equal efficacy | 10 µM | 33.3224 | 29.0836 | 25.5275 | 35.3978 | 16.6801 | 16.3877 | 17.2005 | 29.603 | –
– | – | – | – | – | 173.9 and 77.69 and 59.37 and 61.46 | COc1cc([C@@H]2c3cc4c(cc3[C@@H](O[C@@H]3O[C@@H]5CO[C@@H](C)O[C@H]5[C@H](O)[C@H]3O)[C@H]3COC(=O)[C@H]23)OCO4)cc(OC)c1O [etoposide, reference compound] | – | – | – | – | – | – | – | – | – | – | 63.37 and 136 and 84.27 and 127.1 and 89.2
